Measured values: ChEMBL document CHEMBL1201862, “PubChem BioAssay data set” (2004)
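Cells were grown in 96-well plates and exposed to each compound for 48 hours at five concentrations; endpoints were interpolated linearly between bracketing concentrations, or set to the highest concentration if not reached. GI50 = concentration required for 50% inhibition of growth.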 The source made the active and inactive calls. Rule as the data show it: active = GI50 up to about 1.1 µM and inactive = higher.

What was measured:
Assay in all cases: NCI tumour cell line growth inhibition, 48 h
SK-MEL-5 = system: SK-MEL-5
KM12 = system: KM12
UO-31 = system: UO-31
DLD-1 = system: DLD-1
SW-620 = system: SW-620
Malme-3M = system: Malme-3M
SN12C = system: SN12C
HT-29 = system: HT-29
A498 = system: A498
COLO 205 = system: COLO 205
SNB-19 = system: SNB-19
HL-60 = system: HL-60
NCI-H522 = system: NCI-H522
RXF 393 = system: RXF 393
OVCAR-5 = system: OVCAR-5
OVCAR-8 = system: OVCAR-8
HCC 2998 = system: HCC 2998
RPMI-8226 = system: RPMI-8226
PC-3 = system: PC-3
MDA-MB-231 = system: MDA-MB-231

Row | SMILES | GI50 (SK-MEL-5) | GI50 (KM12) | GI50 (UO-31) | GI50 (DLD-1) | GI50 (SW-620) | GI50 (Malme-3M) | GI50 (SN12C) | GI50 (HT-29) | GI50 (A498) | GI50 (COLO 205) | GI50 (SNB-19) | GI50 (HL-60) | GI50 (NCI-H522) | GI50 (RXF 393) | GI50 (OVCAR-5) | GI50 (OVCAR-8) | GI50 (HCC 2998) | GI50 (RPMI-8226) | GI50 (PC-3) | GI50 (MDA-MB-231)
1 | O=C1CCC(=O)C(C(=O)CCC(=O)Nc2cccc(Cl)c2)C1 (stereo unspecified) | > 100 µM (inactive) | > 100 µM (inactive) | > 100 µM (inactive) | > 100 µM (inactive) | > 100 µM (inactive) | > 100 µM (inactive) | > 100 µM (inactive) | > 100 µM (inactive) | > 100 µM (inactive) | > 100 µM (inactive) | > 100 µM (inactive) | > 100 µM (inactive) | > 100 µM (inactive) | > 100 µM (inactive) | > 100 µM (inactive) | > 100 µM (inactive) | > 100 µM (inactive) | > 100 µM (inactive) | – | –
2 | CN(C)CC1CCCC1=O (stereo unspecified) | 2.86 µM (inactive) | 1.66 µM (inactive) | 9.38 µM (inactive) | 0.195 µM (active) | 0.2 µM (active) | 1.02 µM (active) | 1.06 µM (active) | 0.682 µM (active) | 10.5 µM (inactive) | 0.56 µM (active) | 31 µM (inactive) | 0.084 µM (active) | – | 2.55 µM (inactive) | 5.42 µM (inactive) | 3.62 µM (inactive) | 2.17 µM (inactive) | 0.0502 µM (active) | 8.09 µM (inactive) | 2.64 µM (inactive)
3 | CCOC(=O)c1oc2c(OC)ccc3c2c1CCC3 | > 100 µM (inactive) | > 100 µM (inactive) | 33.6 µM (inactive) | > 100 µM (inactive) | > 100 µM (inactive) | > 100 µM (inactive) | > 100 µM (inactive) | 37.7 µM (inactive) | > 100 µM (inactive) | > 100 µM (inactive) | > 100 µM (inactive) | > 100 µM (inactive) | > 100 µM (inactive) | > 100 µM (inactive) | > 100 µM (inactive) | > 100 µM (inactive) | > 100 µM (inactive) | > 100 µM (inactive) | – | –
4 | COC(=O)/C(=N/Nc1cccc(Cl)c1)C(C(=O)C(=O)Nc1cccc(Cl)c1C)c1nc2ccccc2nc1C (stereo unspecified) | 36 µM (inactive) | 80.7 µM (inactive) | 20.1 µM (inactive) | 34.5 µM (inactive) | > 100 µM (inactive) | 55 µM (inactive) | 60.7 µM (inactive) | > 100 µM (inactive) | > 100 µM (inactive) | > 100 µM (inactive) | – | 29.6 µM (inactive) | > 100 µM (inactive) | > 100 µM (inactive) | 24.4 µM (inactive) | > 100 µM (inactive) | 43.8 µM (inactive) | 88.5 µM (inactive) | – | –
5 | C=CC(=O)C#CC#CC/C=C\CCCCCCC | > 20.6 µM (inactive) | > 20.6 µM (inactive) | > 20.6 µM (inactive) | 8.79 µM (inactive) | > 20.6 µM (inactive) | > 20.6 µM (inactive) | > 20.6 µM (inactive) | > 20.6 µM (inactive) | > 20.6 µM (inactive) | > 20.6 µM (inactive) | > 15.5 µM (inactive) | 9.91 µM (inactive) | 16 µM (inactive) | > 11.3 µM (inactive) | > 20.6 µM (inactive) | > 19.8 µM (inactive) | > 20.6 µM (inactive) | 5.6 µM (inactive) | – | > 20.6 µM (inactive)
6 | N#C/C(=C\c1ccc(O)c(O)c1)C(=O)NC1CCC(CC2CCC(NC(=O)/C(C#N)=C/c3ccc(O)c(O)c3)CC2)CC1 (stereo unspecified) | 1.93 µM (inactive) | 1.47 µM (inactive) | 1.77 µM (inactive) | 0.415 µM (active) | 0.465 µM (active) | 3.65 µM (inactive) | 2.33 µM (inactive) | 1.32 µM (inactive) | 4.7 µM (inactive) | 1.12 µM (inactive) | 3.52 µM (inactive) | 0.902 µM (active) | 0.437 µM (active) | 2.29 µM (inactive) | 2.08 µM (inactive) | 0.459 µM (active) | 2.24 µM (inactive) | 0.693 µM (active) | – | –
7 | COC1CC(OS(=O)(=O)c2ccc([N+](=O)[O-])cc2)C(OC(=O)c2ccccc2)C(C)O1 (stereo unspecified) | > 100 µM (inactive) | > 100 µM (inactive) | – | > 100 µM (inactive) | > 100 µM (inactive) | > 100 µM (inactive) | > 100 µM (inactive) | > 100 µM (inactive) | 88.7 µM (inactive) | > 100 µM (inactive) | > 100 µM (inactive) | > 100 µM (inactive) | > 100 µM (inactive) | 39.1 µM (inactive) | > 100 µM (inactive) | > 100 µM (inactive) | > 100 µM (inactive) | > 100 µM (inactive) | – | –
8 | C/C=C/C1=C(Cl)C(=O)[C@@H](Cl)[C@@]1(O)C(=O)OC [(+)-CRYPTOSPORIPSIN] | 5.73 µM (inactive) | 7.13 µM (inactive) | 5.61 µM (inactive) | 2.28 µM (inactive) | 1.06 µM (active) | 2 µM (inactive) | 2.65 µM (inactive) | 3.46 µM (inactive) | 5.77 µM (inactive) | 1.5 µM (inactive) | 3.8 µM (inactive) | 1.7 µM (inactive) | 1.06 µM (active) | 2.13 µM (inactive) | 11.2 µM (inactive) | 2.08 µM (inactive) | 3.28 µM (inactive) | 2.28 µM (inactive) | – | –
9 | CCOC(=O)c1cccnc1C(OC(C)=O)OC(C)=O | > 100 µM (inactive) | > 100 µM (inactive) | > 100 µM (inactive) | > 100 µM (inactive) | > 100 µM (inactive) | > 100 µM (inactive) | > 100 µM (inactive) | > 100 µM (inactive) | > 100 µM (inactive) | > 100 µM (inactive) | > 100 µM (inactive) | 49.9 µM (inactive) | > 100 µM (inactive) | > 100 µM (inactive) | > 100 µM (inactive) | > 100 µM (inactive) | > 100 µM (inactive) | – | – | –
10 | NCCn1ccc(NC(c2ccccc2)(c2ccccc2)c2ccccc2)nc1=O | – | 21.7 µM (inactive) | > 100 µM (inactive) | 63.1 µM (inactive) | 19.1 µM (inactive) | 18.6 µM (inactive) | 20.3 µM (inactive) | 16.9 µM (inactive) | 65.5 µM (inactive) | 29.8 µM (inactive) | > 10 µM (inactive) | 17.7 µM (inactive) | 18.1 µM (inactive) | 4.08 µM (inactive) | > 100 µM (inactive) | 39.8 µM (inactive) | 18 µM (inactive) | 18.6 µM (inactive) | – | –
11 | Cc1c(/C=N/N=C/c2[nH]c(C(=O)OC(C)(C)C)c(C)c2C)[nH]c(C(=O)OC(C)(C)C)c1C | > 100 µM (inactive) | > 100 µM (inactive) | > 100 µM (inactive) | > 100 µM (inactive) | > 100 µM (inactive) | > 100 µM (inactive) | > 100 µM (inactive) | > 100 µM (inactive) | > 100 µM (inactive) | > 100 µM (inactive) | > 100 µM (inactive) | 43.3 µM (inactive) | 66.5 µM (inactive) | > 100 µM (inactive) | > 100 µM (inactive) | 98.9 µM (inactive) | > 100 µM (inactive) | 90.6 µM (inactive) | – | –
